Experimental findings from patent publication US20210186999A1, “METHOD FOR TREATMENT OF CANCER” (National University of Ireland Galway, priority 2017, published 2021) are described below.

The structures appear in SMILES notation.

Assay [1] has as its system TNF-α+IL-1β treated MSCs co-cultured with activated T-cells. The experiment in a line: MSC : T-cell co-culture in mixed lymphocyte reactions (MLRs), flow cytometry. Type of assay: cell-based, BALB/c. The following applies: MSCs cultured with 100 μM inhibitor for two successive passages; MLR co-culture 96 hrs; FIGS. 3(a)-3(c). As for the experimental part:
Materials and Methods Four female BALB/c at approximately 5 to 7 weeks were euthanized and the femur and tibia was dissected and placed in a 50 ml tube with media or PBS. Using a forceps and scissors the bones were cleaned to remove muscles and snipped on both ends to plunge out the marrow into a Petri dish containing MSC medium. A 30G needle fitted on a 1 ml syringe was used to plunge out the marrow and repeated several times till the bones appeared white. The marrow was passed through a 40 μm sieve attached to a 50 ml tube and the sieve was washed twice with medium. Medium was changed, and a cell count was performed. 10 μl cells was mixed with 40 μl PBS and 10 μl 4% acetic acid and cell count was performed. Based on the count approximately 35-50 million cells were seeded per T175 cm flask or 1 animal per flask. After isolation and culturing the MSCs were extensively characterized in vitro before and after treatment with TNF-α+IL-1β.
Sialic acid content was assayed using lectin coupled flow cytometry. Biotin labelled SNA-I and MAL-II were used to detect a 2-6 sialic acid and a 2-3 sialic acid respectively. Sialyltransferase inhibition was carried out using 100 μM of 3Fax-Peracetyl Neu5Ac. […]
MSC and TNF-α+IL-1βMSC were co-cultured at different MSC: T-cell ratios for 96 hrs. T-cell proliferation, activation, death and differentiation were determined by flow cytometry.
A general note: A flow cytometer gives signals particle by particle.

In assay [2] the test system is nitric oxide (NO), prostaglandin E2 (PGE2), IL-10 in MLR supernatant. The experiment in a line: ELISA and Griess assay of immunomodulatory molecules in supernatant of mixed lymphocyte reaction. Type of assay: cell-based, BALB/c. Particulars: MSCs cultured with 100 μM inhibitor, FIGS. 4(a)-4(c). The procedure:
Sialic acid content was assayed using lectin coupled flow cytometry. Biotin labelled SNA-I and MAL-II were used to detect a 2-6 sialic acid and a 2-3 sialic acid respectively. Sialyltransferase inhibition was carried out using 100 μM of 3Fax-Peracetyl Neu5Ac. Cells were cultured in the presence of the inhibitor for two successive passages to ensure inhibition.
Both ELISA and the Griess assay were used to determine quantity of immunomodulatory molecules in the supernatant of mixed lymphocyte reaction experiments.

For `COC(=O)C1(OC(C)=O)OC(C(OC(C)=O)C(COC(C)=O)OC(C)=O)C(NC(C)=O)C(OC(C)=O)C1F` (stereo not drawn) [3Fax-Peracetyl Neu5Ac], in assay [1], the “proliferation of T-cells (CD4+, CD8+) in co-culture with inhibitor-treated MSCs” value was “restored proliferation of T-cells” and the “suppression of activated T-cells by TNF-α+IL-1β treated MSCs exposed to the sialyltransferase inhibitor” value is “not as effective at suppressing activated T-cells”. The “dependence of restored T-cell proliferation on NO, PGE2 and IL-10” value in assay [2] is “independent of nitric oxide (NO), prostaglandin E2 (PGE2), and IL-10”.
